Read-outs that look alike come from different tables or passages of the source.
Legend:
[1] = tested on: primed CD8^+ T cells (PBMCs from HLA-A2 donors); type: cell-based, human
HLA-A2 = target: T1, HLA-A2 (Homo sapiens, UniProt P04439, D140Y/D185E/D98H/E176V/E277Q/G131W/G231S/I119V/I121R/I166T/I218V/L300P/L318F/N151K/N90K/P208A/P217A/Q86G/Q94H/R138H/R169H/T345S); test: HLA–peptide binding assay (surface stabilization of HLA-A2 on T2 cells); details: differences especially at 10^−5 M and 10^−6 M
T1 construct: T2 cells, a lymphoma-derived line expressing low amounts of HLA-A2; endogenous in cells; host or cells: T2 cells

[2] = old donors (65–69 years, n = 8), peptide 1 μM, day 10 after priming, 24 h ELISpot, positive above 50 SFUs per 10^6 cells

Sequence | IFN-γ responses in old donors [1] | IFN-γ responses in old donors [1, 2] | Relative affinity for HLA-A2 (binding hierarchy among the peptides) (HLA-A2)
HLVDFQVTI [HLA-A2-restricted SARS-CoV-2 peptide from ORF6, residues 3–11] | limited to a single donor | – | –
KIADYNYKL [HLA-A2-restricted SARS-CoV-2 spike-derived peptide, residues 417–425] | – | no responses | –
LLYDANYFL [HLA-A2-restricted SARS-CoV-2 peptide from ORF3a, residues 139–147] | – | limited to a single donor | –
MLDMYSVML [HLA-A2-restricted SARS-CoV-2 peptide from RdRpol, residues 5291–5299] | – | limited to a single donor | –
SLVKPSFYV [HLA-A2-restricted SARS-CoV-2 peptide from protein E, residues 50–58] | – | limited to a single donor | –
TLDSKTQSL [HLA-A2-restricted SARS-CoV-2 spike-derived peptide, residues 109–117] | – | no responses | lowest relative affinities
YLQPRTFLL [HLA-A2-restricted SARS-CoV-2 spike-derived peptide, residues 269–277] | – | – | lowest relative affinities

— article PMC9867380, “Ageing Curtails the Diversity and Functionality of Nascent CD8^+ T Cell Responses against SARS-CoV-2” (Vaccines, 2023)
